Data set [1] can be described thus: Body ^2H2O enrichment (saliva samples) in subjects ingesting 70% ^2H2O over eight weeks. In kind it is in vivo. Particulars: individual human subjects; oral 70% ^2H2O, eight-week study; one value per subject (251498, 251515, 251598, 251748, 251771). The method, then: The protocol for incorporation of ^2H into human mitochondrial DNA from muscle biopsy samples is illustrated in the experimental design of FIG. 3d. Five human subjects enrolled as out-patients ingested 70 ml of 70% ^2H2O three times a day for 5 days then twice a day for 5 days; then ingested 50 ml twice a day thereafter for the remainder of the eight-week study period. Every two weeks, subjects gave a saliva sample (for measurement of body ^2H2O enrichment). At week 8, an open muscle biopsy was performed under surgical conditions. Mitochondria were isolated from excised muscle tissue (1 g) by ultracentrifugation, using methods well known in the art. Isolation of mitochondrial (mt) DNA and phospholipids (PL) were by procedures well known in the art. Measurement of fractional synthesis of mt PL was as described in the general methods, supra and in Collins et al., supra. Measured ^2H-incorporation (EM1=excess abundance of M+1 mass isotopomer of the molecule) and fractional synthesis (f) of mt DNA and mt PL are shown in Table 1.

Data set [2] can be described thus: Toxicity on long-term maintenance of ^2H2O body water enrichment in humans. The class given is in vivo, human. To be noted: body water enrichment 1-10% (0.5%-15%) maintained for weeks or months; >100 people. The source says: (§1) Relatively high body water enrichments of ^2H2O (e.g., 1-10% of the total body water is labeled) may be achieved using the techniques of the invention. Water enrichments of ^2H2O of 0.5%-15% may also be achieved using the techniques described herein. […] This finding in a large number of human subjects (>100 people) is contrary to previous concerns about vestibular toxicities at high doses of ^2H2O. Applicant has discovered that as long as rapid changes in body water enrichment are minimized (e.g., by initial administration in small, divided doses), high body water enrichments of ^2H2O can be maintained with a minimum toxicities. For example, the low expense of commercially available ^2H2O allows long-term maintenance of enrichments in the 1-5% range at relatively low expense (e.g., calculations reveal a lower cost for 2 months labeling at 2% ^2H2O enrichment, and thus 7-8% enrichment in the alanine precursor pool, than for 12 hours labeling of ^2H-leucine at 10% free leucine enrichment, and thus 7-8% enrichment in leucine precursor pool for that period).

For data set [3] the following is noted: in vivo.
Description: as §1

Where “and” joins values, the source holds several entries; their conditions need not be identical. Identical values can stand only once. Like-named read-outs stand apart in the source and are kept apart here.

With `[2H]O[2H]` [^2H2O, deuterated water], in data set [1], the “Body ^2H2O (%)” value is 0.5% and 1.7% and 1.1% and 2.0% and 1.0%. The evidence of toxicity result in data set [2] and in data set [3] was “without any evidence of toxicity” throughout.
